Measured values from patent publication US10105357B2, “Indication of antibiotic drugs for preparation of cancer inhibition pharmaceutical composition” (LAUNX BIOMEDICAL CO., LTD., priority 2014, dated 2018).
Like-named read-outs stand apart in the source and are kept apart here.

Experiments:
[1] = test system: A375 (Amelanotic Melanoma); test: Cell viability analysis, skin cancer A375; assay type: cell-based, human
[2] = test system: PC3 (p53−) (Prostate Adenocarcinoma); test: Cell viability analysis, prostate cancer PC3; assay type: cell-based, human
[3] = test system: HL-60 (Acute Promyelocytic Leukemia); test: Cell viability analysis, leukemia HL-60; assay type: cell-based, human
[4] = test system: HI650 (Lung Adenocarcinoma); test: Cell viability analysis, lung cancer HI650; assay type: cell-based, human
[5] = test system: MKN-45 (Gastric Adenocarcinoma); test: Cell viability analysis, gastric cancer MKN-45; assay type: cell-based, human; conditions: Homo sapiens, MKN-45, 72 h
[6] = test system: AGS (Gastric Adenocarcinoma); test: Cell viability analysis, gastric cancer AGS; assay type: cell-based, human
[7] = test system: MCF7 (Mammary Gland, Adenocarcinoma); test: Cell viability analysis, breast cancer MCF7; assay type: cell-based, human
[8] = test system: HeLa (Cervix Adenocarcinoma); test: Cell viability analysis, cervical cancer HeLa; assay type: cell-based, human
[9] = test system: HepG2 (Hepatocellular Carcinoma); test: Cell viability analysis, hepatic cancer HepG2; assay type: cell-based, human
[10] = test system: TSGH-8301 (Urinary Bladder Carcinoma); test: Cell viability analysis, bladder cancer TSGH-8301; assay type: cell-based, human
[11] = test system: A549 (Lung Adenocarcinoma); test: Cell viability analysis, lung cancer A549; assay type: cell-based, human
[12] = test system: HCT116 (p53+) (Colorectal Carcinoma); test: cells; conditions: Homo sapiens, HCT-116, 72 h, read-out: cell viability (survival rate), HCT116
[13] = test system: LoVo (Colorectal Adenocarcinoma); test: Cell viability analysis, colon cancer LoVo; assay type: cell-based, human
[14] = Homo sapiens, A-375, 72 h, read-out: cell viability (survival rate), A375, drug 10 μM, 72 hours, WST-1, OD450 nm
[15] = Homo sapiens, 72 h, read-out: cell viability (survival rate), PC3, drug 10 μM, 72 hours, WST-1, OD450 nm
[16] = Homo sapiens, HL-60, 72 h, read-out: cell viability (survival rate), HL-60, drug 10 μM, 72 hours, WST-1, OD450 nm
[17] = Homo sapiens, NCI-H1650, 72 h, read-out: cell viability (survival rate), H1650, drug 10 μM, 72 hours, WST-1, OD450 nm
[18] = read-out: cell viability (survival rate), MKN-45, drug 10 μM, 72 hours, WST-1, OD450 nm
[19] = Homo sapiens, 72 h, read-out: cell viability (survival rate), AGS, drug 10 μM, 72 hours, WST-1, OD450 nm
[20] = Homo sapiens, MCF7, 72 h, read-out: cell viability (survival rate), MCF7, drug 10 μM, 72 hours, WST-1, OD450 nm
[21] = Homo sapiens, HeLa, 72 h, read-out: cell viability (survival rate), HeLa, drug 10 μM, 72 hours, WST-1, OD450 nm
[22] = Homo sapiens, HepG2, 72 h, read-out: cell viability (survival rate), HepG2, drug 10 μM, 72 hours, WST-1, OD450 nm
[23] = Homo sapiens, 72 h, read-out: cell viability (survival rate), TSGH, drug 10 μM, 72 hours, WST-1, OD450 nm
[24] = Homo sapiens, A549, 72 h, read-out: cell viability (survival rate), A549, drug 10 μM, 72 hours, WST-1, OD450 nm

CCCCCCCCCCCCCCCC[n+]1ccccc1 [Cetylpyridinium Chloride]
viability at 10 µM ([1]; Homo sapiens, A-375, 72 h, read-out: cell viability (survival rate), A375): 35.6% | viability at 10 µM ([2]; Homo sapiens, 72 h, read-out: cell viability (survival rate), PC3): 37.1% | viability at 10 µM ([3]; Homo sapiens, HL-60, 72 h, read-out: cell viability (survival rate), HL-60): 30.8% | viability at 10 µM ([4]; Homo sapiens, NCI-H1650, 72 h, read-out: cell viability (survival rate), H1650): 48.7% | viability at 10 µM ([5]; read-out: cell viability (survival rate), MKN-45): 47.4% | viability at 10 µM ([6]; Homo sapiens, 72 h, read-out: cell viability (survival rate), AGS): 33.4% | viability at 10 µM ([7]; Homo sapiens, MCF7, 72 h, read-out: cell viability (survival rate), MCF7): 40.9% | viability at 10 µM ([8]; Homo sapiens, HeLa, 72 h, read-out: cell viability (survival rate), HeLa): 37.1% | viability at 10 µM ([9]; Homo sapiens, HepG2, 72 h, read-out: cell viability (survival rate), HepG2): 60.9% | viability at 10 µM ([10]; Homo sapiens, 72 h, read-out: cell viability (survival rate), TSGH): 37.2% | viability at 10 µM ([11]; Homo sapiens, A549, 72 h, read-out: cell viability (survival rate), A549): 29.2% | viability at 10 µM [12]: 33.6% | viability at 10 µM ([13]; Homo sapiens, LoVo, 72 h, read-out: cell viability (survival rate), LoVo): 50.7%

C[C@@H]1CCC[C@H](C)N1NC(=O)c1ccc(Cl)c(S(N)(=O)=O)c1 [Clopamide]
viability at 10 µM [1, 14]: 63.1% | viability at 10 µM [2, 15]: 40.3% | viability at 10 µM [3, 16]: 102% | viability at 10 µM [4, 17]: 54% | viability at 10 µM [5, 18]: 89.4% | viability at 10 µM [6, 19]: 50.3% | viability at 10 µM [7, 20]: 33.4% | viability at 10 µM [8, 21]: 87.1% | viability at 10 µM [9, 22]: 92.8% | viability at 10 µM [10, 23]: 59% | viability at 10 µM [11, 24]: 32.4% | viability at 10 µM [12]: 102% | viability at 10 µM ([13]; Homo sapiens, LoVo, 72 h, read-out: cell viability (survival rate), LoVo, drug 10 μM, 72 hours, WST-1, OD450 nm): 54.3%

CNC[C@H](O)[C@@H](O)[C@H](O)[C@H](O)CO [Meglumine]
viability at 10 µM ([1]; Homo sapiens, A-375; drug 10 μM, 72 hours, WST-1, OD450 nm; read-out: cell viability (survival rate), A375): 78.2% | viability at 10 µM ([2]; Homo sapiens; drug 10 μM, 72 hours, WST-1, OD450 nm; read-out: cell viability (survival rate), PC3): 76.8% | viability at 10 µM ([3]; Homo sapiens, HL-60; drug 10 μM, 72 hours, WST-1, OD450 nm; read-out: cell viability (survival rate), HL-60): 114% | viability at 10 µM ([4]; Homo sapiens, NCI-H1650; drug 10 μM, 72 hours, WST-1, OD450 nm; read-out: cell viability (survival rate), H1650): 62% | viability at 10 µM ([6]; Homo sapiens; drug 10 μM, 72 hours, WST-1, OD450 nm; read-out: cell viability (survival rate), AGS): 95% | viability at 10 µM ([7]; Homo sapiens, MCF7; drug 10 μM, 72 hours, WST-1, OD450 nm; read-out: cell viability (survival rate), MCF7): 97% | viability at 10 µM ([8]; Homo sapiens, HeLa; drug 10 μM, 72 hours, WST-1, OD450 nm; read-out: cell viability (survival rate), HeLa): 74.1% | viability at 10 µM ([9]; Homo sapiens, HepG2; drug 10 μM, 72 hours, WST-1, OD450 nm; read-out: cell viability (survival rate), HepG2): 90.8% | viability at 10 µM ([10]; Homo sapiens; drug 10 μM, 72 hours, WST-1, OD450 nm; read-out: cell viability (survival rate), TSGH): 109% | viability at 10 µM ([11]; Homo sapiens, A549; drug 10 μM, 72 hours, WST-1, OD450 nm; read-out: cell viability (survival rate), A549): 108% | viability at 10 µM [12]: 92.7% | viability at 10 µM ([13]; Homo sapiens, LoVo; drug 10 μM, 72 hours, WST-1, OD450 nm; read-out: cell viability (survival rate), LoVo): 78.4%

Cc1cc(O)ccc1Cl [Chlorocresol]
viability at 10 µM ([1]; Homo sapiens, A-375, 72 h; read-out: cell viability (survival rate), A375): 65.4% | viability at 10 µM ([2]; Homo sapiens, 72 h; read-out: cell viability (survival rate), PC3): 130% | viability at 10 µM ([3]; Homo sapiens, HL-60, 72 h; read-out: cell viability (survival rate), HL-60): 96.4% | viability at 10 µM ([4]; Homo sapiens, NCI-H1650, 72 h; read-out: cell viability (survival rate), H1650): 91.5% | viability at 10 µM ([6]; Homo sapiens, 72 h; read-out: cell viability (survival rate), AGS): 103% | viability at 10 µM ([7]; Homo sapiens, MCF7, 72 h; read-out: cell viability (survival rate), MCF7): 64.2% | viability at 10 µM ([8]; Homo sapiens, HeLa, 72 h; read-out: cell viability (survival rate), HeLa): 96.3% | viability at 10 µM ([9]; Homo sapiens, HepG2, 72 h; read-out: cell viability (survival rate), HepG2): 98.6% | viability at 10 µM ([10]; Homo sapiens, 72 h; read-out: cell viability (survival rate), TSGH): 113% | viability at 10 µM ([11]; Homo sapiens, A549, 72 h; read-out: cell viability (survival rate), A549): 80.1% | viability at 10 µM [12]: 61.7% | viability at 10 µM ([13]; Homo sapiens, LoVo, 72 h; read-out: cell viability (survival rate), LoVo): 62%

COC(=O)C1=CO[C@@H](O)[C@@H]2C(CO)=CC[C@H]12 [Genipin]
viability at 10 µM [1, 14]: 78% | viability at 10 µM [2, 15]: 71.6% | viability at 10 µM [3, 16]: 117% | viability at 10 µM [4, 17]: 69.5% | viability at 10 µM [5, 18]: 54.1% | viability at 10 µM [6, 19]: 49.6% | viability at 10 µM [7, 20]: 71.7% | viability at 10 µM [8, 21]: 74.5% | viability at 10 µM [9, 22]: 87.1% | viability at 10 µM [10, 23]: 67.7% | viability at 10 µM [11, 24]: 61.8% | viability at 10 µM [12]: 82.7%
